Experimental data taken from US12202790B2, “Sulfonamide derivatives having selective Nox inhibiting activity” (GLUCOX BIOTECH AB, priority 2018, dated 2025).
Like-named read-outs stand apart in the source and are kept apart here.

Key:
xanthine oxidase = xanthine oxidase (Bos taurus (Bovine), UniProt P80457); experiment: Amplex Red xanthine oxidase (XO) assay; type: biochemical; design: key: The sign “—” stands for “inactive”
Description: (§1) Reactive oxygen produced in whole cells or in membrane preparation of Nox1, Nox3, Nox4, Nox5 and xanthine oxidase and glucose oxidase were determined using Amplex Red as detection probe of formed H2O2. Amplex Red (10-acetyl-3,7-dihydroxyphenoxazine) in combination with HRP and co-factors reacts with H2O2 in a 1:1 stoichiometry to form a highly fluorescent resorufin excitated at 544 nm producing emission at 590 nm.
The assay was designed for Amplex Red analysis of production of hydrogen peroxide. Test compounds were incubated with 5 mU/ml bovine derived xanthine oxidase for 15 min at room temperature followed by the addition of substrate and detection mix (final concentrations of 0.2 U/ml HRP, 5 μM hypoxanthine, and 50 μM Amplex Red). As described by Hirano K et al., Antioxid Redox Signal 2015 10; 23:358-374, production of hydrogen peroxide was followed by fluorescence detection during 30 min at 37° C. in a plate reader that use excitation at 544 nm producing emission at 590 nm.

Nox2 = Nox2 (Homo sapiens (Human), UniProt P04839); experiment: Nox2 inhibition in human neutrophils, isoluminol-dependent chemiluminescence; type: cell-based; design: key to IC50 Nox2: The sign “—” stands for “inactive”; settings: PMA stimulated human neutrophils
Description: (§2) HEK293 overexpressing Nox4 (CJ Nox4) cells were purchased from Redoxis, Lund, Sweden. HEK 293 cells expressing Nox5, Nox3 (HEK TRex) and CHO cells expressing Nox1, were a kind gift from Vincent Jaque Center Medical Universitaire, Geneva, Switzerland. Nox2 expressed in isolated neutrophils were isolated from whole blood (human), as previously described (Anvari E, et al., Free Radic Res 2015; 49:1308-1318).
Compounds of the invention were tested for selectivity against Nox2 in isolated neutrophils from whole blood (human), as previously described (Anvari E, et al., vide supra). Levels of ROS from PMA stimulated primary human neutrophils were measured using isoluminol-dependent chemiluminescence. […] The dye is excited by ROS and the light emitted when the excited molecules return to the ground state, relative to the amount of released ROS, is measured. This reaction is catalyzed and amplified by peroxidases. […] Compounds of the invention and GKT136901 were diluted at 4× working concentration and titrated from 100 μM to 0.006 μM in 1:4 steps as final concentrations. DPI was diluted in isoluminol buffer at 4× working concentration titrated from 10 μM to 0.0006 μM as final concentrations. PMA was diluted in isoluminol buffer at 4× working concentration for a final concentration of 30 ng/ml. […] Luminescence was detected using FluoStar Optima (BMG, Labtech). The isoluminol buffer was prepared immediately prior to addition to test plate. The buffer contained HRP fraction with or without PMA (30 ng/ml). Stock solutions at 6 μg/ml (PMA in HBSS), 3 μg/ml (PMA in DMSO) and 24 mM (DPI) were used and further diluted at the day of analysis to 4× working concentrations in HBSS with or without DMSO.

hNox4 = hNox4 (Homo sapiens (Human), UniProt Q9NPH5); experiment: Amplex Red assay of intact Nox4 expressing HEK293 cells; type: cell-based
Description: as §2
HEK293 cells (CJ Nox4) were cultured in RPMI 1640 with Glutamax supplemented with FBS (10%), penicillin (100 U/ml) and streptomycin […] at 37° C. in air with 5% CO2. Every third passage 200 µg/ml neomycin were supplied in growth medium as selective agent.
as §1
Adherent cells (CHO, HEK) were collected by trypsinization, centrifuged, washed with HBSS, counted, and resuspended in HBSS. Cells were seeded in 96-well black flat bottom plates at a density of 50,000-100,000 cells/well. All compounds were dissolved in DMSO and concentrations ranging from 0.003 to 200 μM were tested in Nox cellular assays with a final concentration of DMSO of 1%. Cells were incubated at 37° C. with the compounds for 30 minutes before measurement. Cells expressing Nox1 and Nox2 were activated with the PKC activator PMA (0.1 μM). Nox5 was activated with the Ca2+ ionophore ionomycin (1 μM) and further enforced with PMA. The CJ HEK 293 cells overexpressed Nox4 constitutively. In the HTS screen HEK 293 TRex was used and tetracycline ([…]) was added 18 h before measurement to induce Nox4 expression. Production of hydrogen peroxide by Nox in intact cells was measured using Amplex Red fluorescence as described by Jaquet V, et al., Br J Pharmacol 2011; 164:507-520. Assay reagents including HRP ([…]) and Amplex Red (50 μM) were added to initiate production of hydrogen peroxide. Fluorescence was read in a fluorescence plate reader at 37° C. every minute between 30-60 minutes.

DPPH redox assay = experiment: DPPH redox assay; design: key: The sign “—” stands for “inactive”; settings: redox activity control
Description: DPPH, a well-known sensitive chemical of monitoring reactions involving radicals described by Xiong Q, et al., Biol Pharm Bull 1996; 19:1580-1585, was used as control to exclude any redox active compound. DPPH was incubated with decreasing concentrations (200-0.003 μM) of compounds of the invention or prior art compound GKT136901 (as a positive control). The plate was kept in the dark for 60 min, after which the absorbance of the solution was measured at 518 nm.

[1] = Determination of chemical stability; type: physicochemical
Description: Test compound was pipetted into an HPLC vial, from 10 mM DMSO, to yield 2 μM final concentration in three separate vials containing buffers with different pH. At reaction start the three different buffers were mixed with isopropanol (1:2, buffer:isopropanol). The buffers used were: pH 2 (H3PO4/KH2PO4 10 mM), pH 7.4 (KH2PO4/K2HPO4 10 mM) and pH 10 (Glycine/NaOH 10 mM). Immediately (<1 minute) after buffer or buffer/isopropanol addition, a 100 μl aliquot was added to a separate plate containing 100 μl acetonitrile:H2O (60:40) and Warfarin (internal standard, IS), sealed and frozen at −20° C. This test was made for 2 h and 20 h. Analysis was performed on a XEVO TQ mass spectrometer coupled to an Acquity UPLC system in ESI^+MRM mode, separation on a BEH C18 2×50 mm column.

[2] = Plasma protein binding, human; type: in vitro ADME; settings: 10 μM in plasma, equilibrium dialysis 4 h, read-out: fu % human plasma protein
Description: Example compounds were incubated at 10 μM in plasma and then equilibrium dialysed for 4 h, using a rapid equilibrium device. Protein binding (fu %) was determined by LS/MS as previously described (Anvari E, et al., vide supra).

[3] = read-out: IC50 on hNox4 in recombinant cells

xanthine oxidase, sequence (P80457 whole entry): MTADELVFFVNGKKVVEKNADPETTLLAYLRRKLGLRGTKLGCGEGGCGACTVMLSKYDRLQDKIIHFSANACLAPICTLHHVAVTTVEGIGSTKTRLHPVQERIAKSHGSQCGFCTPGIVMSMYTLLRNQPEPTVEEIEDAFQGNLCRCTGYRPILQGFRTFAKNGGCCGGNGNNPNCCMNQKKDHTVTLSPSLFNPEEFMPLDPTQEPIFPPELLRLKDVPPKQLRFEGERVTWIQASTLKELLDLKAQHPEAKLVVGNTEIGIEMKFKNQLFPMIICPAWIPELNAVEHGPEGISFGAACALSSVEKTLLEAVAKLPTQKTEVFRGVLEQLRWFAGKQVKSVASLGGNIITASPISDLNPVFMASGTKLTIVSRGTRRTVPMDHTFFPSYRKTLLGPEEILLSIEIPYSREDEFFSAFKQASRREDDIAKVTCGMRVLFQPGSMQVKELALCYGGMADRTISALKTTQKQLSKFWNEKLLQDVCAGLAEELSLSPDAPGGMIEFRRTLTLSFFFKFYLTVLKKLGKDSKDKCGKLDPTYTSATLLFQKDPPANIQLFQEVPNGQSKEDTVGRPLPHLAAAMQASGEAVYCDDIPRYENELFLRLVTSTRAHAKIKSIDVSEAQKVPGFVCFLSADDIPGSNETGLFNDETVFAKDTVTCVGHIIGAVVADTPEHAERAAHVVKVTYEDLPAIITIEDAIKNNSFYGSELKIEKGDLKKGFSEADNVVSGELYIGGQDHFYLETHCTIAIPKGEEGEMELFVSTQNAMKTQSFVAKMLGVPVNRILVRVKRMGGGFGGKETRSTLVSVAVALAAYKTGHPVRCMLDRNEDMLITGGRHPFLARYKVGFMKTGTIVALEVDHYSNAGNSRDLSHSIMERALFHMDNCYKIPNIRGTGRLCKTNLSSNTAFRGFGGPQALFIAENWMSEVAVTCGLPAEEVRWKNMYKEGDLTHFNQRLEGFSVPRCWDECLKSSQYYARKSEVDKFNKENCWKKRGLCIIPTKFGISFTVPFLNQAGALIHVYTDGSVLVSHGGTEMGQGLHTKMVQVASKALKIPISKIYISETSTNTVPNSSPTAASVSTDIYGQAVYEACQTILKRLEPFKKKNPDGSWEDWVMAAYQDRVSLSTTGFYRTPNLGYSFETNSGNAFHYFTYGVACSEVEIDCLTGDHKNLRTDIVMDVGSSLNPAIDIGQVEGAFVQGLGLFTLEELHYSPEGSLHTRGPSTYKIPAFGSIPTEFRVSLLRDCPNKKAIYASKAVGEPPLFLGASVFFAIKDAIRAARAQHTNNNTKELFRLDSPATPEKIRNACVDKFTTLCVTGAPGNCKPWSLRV
Nox2, sequence (P04839 2-570): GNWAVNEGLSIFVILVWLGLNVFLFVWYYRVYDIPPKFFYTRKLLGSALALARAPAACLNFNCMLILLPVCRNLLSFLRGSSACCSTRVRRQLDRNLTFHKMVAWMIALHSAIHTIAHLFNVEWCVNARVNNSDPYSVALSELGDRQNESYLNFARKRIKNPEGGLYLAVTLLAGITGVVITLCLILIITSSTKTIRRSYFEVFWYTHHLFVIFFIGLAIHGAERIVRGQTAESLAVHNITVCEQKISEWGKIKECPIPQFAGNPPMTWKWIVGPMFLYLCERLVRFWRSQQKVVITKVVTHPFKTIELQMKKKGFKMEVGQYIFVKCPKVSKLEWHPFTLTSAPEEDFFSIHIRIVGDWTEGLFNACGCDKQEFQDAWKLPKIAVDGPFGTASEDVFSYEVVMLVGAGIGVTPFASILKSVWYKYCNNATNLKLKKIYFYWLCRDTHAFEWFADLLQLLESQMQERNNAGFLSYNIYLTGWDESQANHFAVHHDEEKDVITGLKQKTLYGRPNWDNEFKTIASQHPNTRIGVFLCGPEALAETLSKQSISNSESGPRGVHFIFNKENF
Nox2, sequence (P13498 2-195 partner): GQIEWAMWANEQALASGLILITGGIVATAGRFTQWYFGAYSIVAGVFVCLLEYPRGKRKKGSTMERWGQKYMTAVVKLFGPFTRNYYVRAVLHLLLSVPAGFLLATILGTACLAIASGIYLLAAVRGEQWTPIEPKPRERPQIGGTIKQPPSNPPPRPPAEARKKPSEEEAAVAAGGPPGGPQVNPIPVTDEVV
hNox4, sequence (Q9NPH5 whole entry): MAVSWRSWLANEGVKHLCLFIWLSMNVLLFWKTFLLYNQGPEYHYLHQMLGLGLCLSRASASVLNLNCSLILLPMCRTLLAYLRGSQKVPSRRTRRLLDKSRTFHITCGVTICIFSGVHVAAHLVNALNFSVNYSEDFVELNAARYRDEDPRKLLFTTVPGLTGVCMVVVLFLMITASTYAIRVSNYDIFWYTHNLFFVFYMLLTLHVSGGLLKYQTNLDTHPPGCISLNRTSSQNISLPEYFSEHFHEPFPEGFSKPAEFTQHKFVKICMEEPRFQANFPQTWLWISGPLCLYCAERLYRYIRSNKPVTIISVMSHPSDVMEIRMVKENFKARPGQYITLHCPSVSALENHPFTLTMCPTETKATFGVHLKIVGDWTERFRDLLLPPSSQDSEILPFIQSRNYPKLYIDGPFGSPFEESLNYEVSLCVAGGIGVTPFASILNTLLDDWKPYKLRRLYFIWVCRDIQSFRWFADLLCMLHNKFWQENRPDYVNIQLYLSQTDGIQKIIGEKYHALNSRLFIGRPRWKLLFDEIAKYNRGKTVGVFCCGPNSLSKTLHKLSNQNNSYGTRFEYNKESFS
hNox4, sequence (P13498 2-195 partner): as the sequence (P13498 2-195 partner) above

Structure (SMILES)	IC50 XO (xanthine oxidase)	IC50 Nox2 (Nox2)	IC50 (hNox4; read-out: IC50 Nox4)	IC50 (hNox4; [3])	IC50 DPPH (DPPH redox assay)	Chem. stab. pH 7.4 [1]	fraction unbound at 4 h, 10 μM [2]	IC50 (Nox2)
Cc1ccccc1CCNS(=O)(=O)c1c(C)cccc1Cl [Example 11, 2-chloro-6-methyl-N-[2-(2-methylphenyl)ethyl]benzene-1-sulfonamide]	—	—	2400 nM	2400 nM	—			
Cc1ccccc1C(F)CNS(=O)(=O)c1c(Cl)cc(Br)cc1Cl (racemic) [Example 35, 4-bromo-2,6-dichloro-N-[2-fluoro-2-(2-methylphenyl)ethyl]benzene-1-sulfonamide]	—	—	1700 nM		—	stable	0.0002	
Cc1cc(O)cc(C)c1S(=O)(=O)NCCc1ccccc1O [Example 48, 4-hydroxy-N-[2-(2-hydroxyphenyl)ethyl]-2,6-dimethyl-benzenesulfonamide]	—		22000 nM		—	stable	0.011	870 nM
O=S(=O)(NCCc1ccccc1Cl)c1c(Cl)cc(C2CC2)cc1Cl [Example 26, 2,6-dichloro-N-[2-(2-chlorophenyl)ethyl]-4-cyclopropylbenzene-1-sulfonamide]	—	—	360 nM	360 nM	—			
O=S(=O)(NCCc1ccccc1O)c1c(Cl)cc(Br)cc1Cl [Example 38, 4-bromo-2,6-dichloro-N-[2-(2-hydroxyphenyl)ethyl]benzenesulfonamide]	—		300 nM		—	stable	0.0062	1500 nM
Cc1cc(C)c(S(=O)(=O)NCCc2ccccc2O)c(C)c1 [Example 37, N-[2-(2-hydroxyphenyl)ethyl]-2,4,6-trimethylbenzene-1-sulfonamide]	—		800 nM		—	stable	0.011	900 nM
Cc1ccccc1CCNS(=O)(=O)c1c(Cl)cc(Br)cc1Cl [Example 17, 4-bromo-2,6-dichloro-N-[2-(2-methylphenyl)ethyl]benzene-1-sulfonamide]	—	—	270 nM	270 nM	—	stable	0.0002	
COc1cc(C)c(S(=O)(=O)NCCc2ccccc2O)c(C)c1 [Example 47, N-[2-(2-hydroxyphenyl)ethyl]-4-methoxy-2,6-dimethyl-benzenesulfonamide]	—		1600 nM		—	stable	0.03	1000 nM
Cc1cc(Cl)c(S(=O)(=O)NCCc2ccccc2O)c(C)c1O [Example 44, 6-chloro-3-hydroxy-N-[2-(2-hydroxyphenyl)ethyl]-2,4-dimethyl-benzenesulfonamide]	—		2400 nM		—	stable	0.015	900 nM
COc1cc(C)c(S(=O)(=O)NCCc2ccccc2Cl)c(C)c1 [Example 46, N-[2-(2-chlorophenyl)ethyl]-4-methoxy-2,6-dimethyl-benzenesulfonamide]	—	—	300 nM		—	stable	0.0026	
